In patent publication US4863493A, “High purity acetylene gas” (Nichigo Acetylene Kabushiki Kaisha, priority 1987, dated 1989):

How the values were obtained:
[1] = Acetylene stripped from DMF saturated with acetylene on heating; type: physicochemical; conditions: heated to 0° C.
Text: The amount of acetylene dissolved in a solvent depends on the temperature of the solvent. Usually increasing the temperature tends to decrease the solubility. […] As mentioned above, the terminology "stripped acetylene" is intended to refer to "acetylene stripped from a solvent".

[2] = in DMF, at 25° C.; data from catalogue of NITTO CHEMICAL INDUSTRY CO., LTD.; cited from earlier work

## C#C [C2 H2, acetylene]
[1]; DMF saturated with acetylene at -40° C.
  acetylene at S.T.P. stripped from 1 l of DMF: about 238 l
[1]; DMF saturated with acetylene at -60° C.
  acetylene at S.T.P. stripped from 1 l of DMF: about 382 l
[2]
  Solubility: 31.4 l/l

## O=C=O [CO2, carbon dioxide]
[2]
  Solubility: 4.5 l/l

## [C-]#[O+] [CO]
[2]
  Solubility: 0.06 l/l

## [HH] [H2, hydrogen]
[2]
  Solubility: 0.04 l/l
